According to patent US20230272016A1, “PEPTIDES FOR IMMUNOTHERAPY” (Second Genome, Inc., priority 2020, published 2023):

Tested on: human T cells
Assay: Human T cell activation assay (anti-CD3 plus peptide, cytokine secretion)
Type: cell-based
Conditions: Table 10; combinatorial library variants of SEQ ID NO:1
Procedure: FIGS. 11 and 12 show 150 peptide variants of the SG-3-0020 1-29 aa N-terminal+middle region, derived from a combinatorial phage display library, were tested for activation potential of human T cells. […] Increase in cytokine secretion was concordant in 3 donors.
For example, PBMCs were obtained from individual human donors.
T-cell activation was also determined as described previously (see above and International Application No. PCT/US2020/012431). […] Separate N-, MID, and C-terminal fragments lose activity. The data support that both N- and middle region are minimally required for binding and activation to T cells.

| Sequence | mean_ES_IFN-γ |
| --- | --- |
| PVSAAKGKWHDHNWSGRMRPPPWHDWRAR [SEQ ID NO: 18] | 1.169 |
| VTSTAKGKTHDHNWSGRYRPPPWHDWRAR [SEQ ID NO: 9] | 1.28 |
| WASGAKGKWHDHYGGGRYRDPGWHDWRGS [SEQ ID NO: 20] | 1.135 |
| WGSAAKGKTHDHWPSGRHRDPPWHDWRVR [SEQ ID NO: 31] | 1.044 |
| WGSAAKGKTHDHWPSGRYRDPKWHDWRVS [SEQ ID NO: 21] | 1.134 |
| WGSAAKGKTHDHYGSGRYRDPPWHDWRAR [SEQ ID NO: 32] | 1.038 |
| WGSGAKGKTHDHWGSGRWRDPGWHDWRGS [SEQ ID NO: 5] | 1.324 |
| WPSAAKGKTHDHNPSGRMRPPPWHDWRFS [SEQ ID NO: 26] | 1.078 |
| WPSGAKGKWHDHYPGGRMRPPPWHDWRFS [SEQ ID NO: 4] | 1.351 |
| WSSAAKGKTHDHWGGGRYRPPPWHDWRAS [SEQ ID NO: 17] | 1.172 |
| WSSGAKTKWHDHYGSGRHRDPKWHDWRGS [SEQ ID NO: 19] | 1.147 |
| WSSTAKGKTHDHWPSGRYRPPPWHDWRAR [SEQ ID NO: 35] | 1.009 |
| WVSAAKGKTHDHWGSGRHRDPPWHDWRAR [SEQ ID NO: 30] | 1.052 |
| WVSAAKGKWHDHYGSGRMRDPPWHDWWGS [SEQ ID NO: 24] | 1.104 |

Same assay, conditions: Table 11; 150 combinatorial library variants of SEQ ID NO:1

| Sequence | mean_ES_IFN-γ |
| --- | --- |
| PTSAAKGKTHDHYPGGRYRDPPWHDWRAS [SEQ ID NO: 356] | −0.5055 |
| PVSAAKGKTHDHWPGGRMRDPPWHDWRAS [SEQ ID NO: 329] | 0.3768 |
| PVSAAKGKWHDHNWSGRMRPPPWHDWRAR [SEQ ID NO: 18] | 1.169 |
| PVSAAKGKWHDHYPSGRWRDPPWHDWRAS [SEQ ID NO: 321] | 0.4882 |
| SASAAKGKTHDHWGGGRHRDPPWHDWRFS [SEQ ID NO: 341] | 0.2746 |
| SPSGAKGKTHDHYPSGRMRPPPWHDWRFS [SEQ ID NO: 261] | 0.8871 |
| SPSGAKTKWHDHNPGGRMRPPPWHDWRAR [SEQ ID NO: 324] | 0.4459 |
| SSSGAKGKWHDHNPSGRWRDPGWHDWRVR [SEQ ID NO: 325] | 0.4435 |
| SSSGAKGKWHDHYGGGRHRDPPWHDWRGS [SEQ ID NO: 344] | 0.1326 |
| SVSAAKGKTHDHYPSGRWRDPPWHDWRAS [SEQ ID NO: 300] | 0.645 |
| VGSAAKTKTHDHYGGGRMRPPPWHDWRFS [SEQ ID NO: 331] | 0.3468 |
| VGSGAKGKTHDHNGSGRYRPPPWHDWRFS [SEQ ID NO: 299] | 0.6497 |
| VHSAAKTKTHDHWGSGRMRDPPWHDWRGS [SEQ ID NO: 346] | 0.04292 |
| VLSTAKGKTHDHYPGGRMRPPPWHDWRAR [SEQ ID NO: 257] | 0.918 |
| VPSAAKGKWHDHNGSGRMRDPGWHDWRFS [SEQ ID NO: 348] | −0.009349 |
| VPSAAKGKWHDHNPGGRHRPPPWHDWRAS [SEQ ID NO: 291] | 0.7119 |
| VSSAAKGKTHDHNPSGRMRPPPWHDWRFS [SEQ ID NO: 322] | 0.4538 |
| VSSAAKGKTHDHYPSGRMRPPPWHDWRGR [SEQ ID NO: 283] | 0.7475 |
| VSSGAKGKTHDHYPSGRMRPPPWHDWRFS [SEQ ID NO: 297] | 0.6662 |
| VSSGAKTKTHDHNPSGRMRDFKWHDWRGS [SEQ ID NO: 350] | −0.1153 |
| VTSAAKGKTHDHYPSGRMRPPPWHDWRFS [SEQ ID NO: 312] | 0.5616 |
| VTSAAKGKTHDHYPSGRYRPPPWHDWRGR [SEQ ID NO: 310] | 0.5718 |
| VTSAAKGKWHDHWPSGRYRDPPWHDWRVS [SEQ ID NO: 308] | 0.588 |
| VTSAAKTKWHDHNGSGRYRDPGWHDWRGS [SEQ ID NO: 347] | 0.01499 |
| VTSTAKGKTHDHNWSGRYRPPPWHDWRAR [SEQ ID NO: 9] | 1.28 |

| Sequence | mean_ES_IFN-γ |
| --- | --- |
| VVSGAKGKTHDHNWGGRYRPPPWHDWRGS [SEQ ID NO: 296] | 0.6729 |
| VVSTAKGKTHDHYPGGRMRPPPWHDWRAR [SEQ ID NO: 251] | 0.952 |
| VVSTAKGKTHDHYWSGRYRPPPWHDWRAR [SEQ ID NO: 259] | 0.9101 |
| WASAAKGKTHDHYGGGRMRPPPWHDWRAR [SEQ ID NO: 323] | 0.4505 |
| WASGAKGKTHDHNPSGRWRDPGWHDWRGS [SEQ ID NO: 330] | 0.3705 |
| WASGAKGKTHDHWPGGRHRDPPWHDWRVS [SEQ ID NO: 271] | 0.8431 |
| WASGAKGKTHDHYPSGRMRPPPWHDWRWS [SEQ ID NO: 278] | 0.7784 |
| WASGAKGKWHDHYGGGRYRDPGWHDWRGS [SEQ ID NO: 20] | 1.135 |
| WASGAKGKWHDHYGSGRYRPPPWHDWRGS [SEQ ID NO: 290] | 0.712 |
| WGSAAKGKTHDHNWSGRYRPPPWHDWRVS [SEQ ID NO: 302] | 0.6264 |
| WGSAAKGKTHDHWPSGRHRDPPWHDWRVR [SEQ ID NO: 31] | 1.044 |
| WGSAAKGKTHDHWPSGRMRDPPWHDWRVS [SEQ ID NO: 256] | 0.9254 |
| WGSAAKGKTHDHWPSGRYRDPKWHDWRVS [SEQ ID NO: 21] | 1.134 |
| WGSAAKGKTHDHYGSGRYRDPPWHDWRAR [SEQ ID NO: 32] | 1.038 |
| WGSAAKGKWHDHYPSGRMRPPPWHDWRVR [SEQ ID NO: 275] | 0.8178 |
| WGSGAKGKTHDHNGGGRMRPPPWHDWRAS [SEQ ID NO: 334] | 0.3217 |
| WGSGAKGKTHDHWGSGRWRDPGWHDWRGS [SEQ ID NO: 5] | 1.324 |
| WGSGAKTKWHDHNWSGRMRPPPWHDWRFS [SEQ ID NO: 354] | −0.315 |
| WLSAAKAKTHDHWGSGRHRPPPWHDWRGS [SEQ ID NO: 315] | 0.5302 |
| WLSAAKGKTHDHWGSGRWRDPPWHDWRFS [SEQ ID NO: 345] | 0.06564 |
| WLSTAKGKTHDHNWSGRYRPPPWHDWRVR [SEQ ID NO: 307] | 0.6005 |
| WPSAAKGKTHDHNPSGRMRPPPWHDWRFS [SEQ ID NO: 26] | 1.078 |
| WPSAAKGKTHDHYPGGRYRPPPWHDWRVR [SEQ ID NO: 295] | 0.6782 |
| WPSGAKGKWHDHYPGGRMRPPPWHDWRFS [SEQ ID NO: 4] | 1.351 |
| WPSGAKTKTHDHNWGGRMRDPPWHDWRGS [SEQ ID NO: 339] | 0.2814 |

| Sequence | mean_ES_IFN-γ |
| --- | --- |
| WPSTAKGKTHDHYGGGRMRPPPWHDWRAR [SEQ ID NO: 318] | 0.5137 |
| WQSAAKTKTHDHWPGGRMRPPPWHDWRAR [SEQ ID NO: 352] | −0.2305 |
| WQSAAKTKTHDHWPSGRYRPPPWHDWRAS [SEQ ID NO: 294] | 0.6837 |
| WSSAAKGKTHDHNPSGRHRPPPWHDWRVS [SEQ ID NO: 304] | 0.6137 |
| WSSAAKGKTHDHNWSGRHRPPPWHDWRFS [SEQ ID NO: 250] | 0.9527 |
| WSSAAKGKTHDHWGGGRYRPPPWHDWRAS [SEQ ID NO: 17] | 1.172 |
| WSSAAKGKTHDHYGGGRMRPPPWHDWRAR [SEQ ID NO: 338] | 0.2829 |
| WSSAAKGKTHDHYGSGRMRDFGWHDWRFS [SEQ ID NO: 274] | 0.8191 |
| WSSAAKGKTHDHYPSGRHRPPPWHDWRVS [SEQ ID NO: 253] | 0.9469 |
| WSSAAKTKWHDHNPGGRYRPPPWHDWRFR [SEQ ID NO: 332] | 0.3258 |
| WSSGAKTKWHDHNGSGRYRPPPWHDWRGS [SEQ ID NO: 286] | 0.7241 |
| WSSGAKTKWHDHNPGGRMRDPPWHDWRGS [SEQ ID NO: 335] | 0.3156 |
| WSSGAKTKWHDHYGSGRHRDPKWHDWRGS [SEQ ID NO: 19] | 1.147 |
| WSSTAKGKTHDHWPSGRYRPPPWHDWRAR [SEQ ID NO: 35] | 1.009 |
| WSSTAKTKWHDHNGGGRMRPPPWHDWRAR [SEQ ID NO: 305] | 0.612 |
| WTSAAKGKTHDHYPSGRYRPPPWHDWRVR [SEQ ID NO: 357] | −1.02 |
| WTSAAKGKWHDHNGSGRHRDPPWHDWRAR [SEQ ID NO: 289] | 0.7151 |
| WTSAAKTKWHDHYGGGRMRPPPWHDWRAR [SEQ ID NO: 272] | 0.8379 |
| WTSGAKGKWHDHNGGGRMRDPGWHDWRFS [SEQ ID NO: 309] | 0.5851 |
| WTSGAKGKWHDHYGGGRYRDPGWHDWRFS [SEQ ID NO: 280] | 0.7716 |
| WVSAAKGKTHDHNGGGRWRDPGWHDWRFS [SEQ ID NO: 336] | 0.3032 |
| WVSAAKGKTHDHWGSGRHRDPPWHDWRAR [SEQ ID NO: 30] | 1.052 |
| WVSAAKGKWHDHYGSGRMRDPPWHDWWGS [SEQ ID NO: 24] | 1.104 |
